According to article PMC3176258, “A genomic biomarker signature can predict skin sensitizers using a cell-based in vitro alternative to animal tests” (BMC Genomics, 2011):
Converted amounts (≈) assume the structure as drawn. Like-named read-outs stand apart in the source and are kept apart here.

Tests used:
[1] = test system: MUTZ-3 cells; test: Transcriptional profiling (Affymetrix Human Gene 1.0 ST arrays, PCA) after 24 h stimulation; format: cell-based; details: for Potency predicted by Prediction Signature gene expression profile: 200 transcripts, PCA, compared with LLNA potency, Figure 4C
[2] = test system: mice; details: cited from earlier work
[3] = test system: MUTZ-3 cells; test: Cytotoxicity by propidium iodide, relative viability
Protocol: A panel of 40 chemical compounds, consisting of 20 sensitizers and 20 non-sensitizers were used for cell stimulations. […] All chemicals were from Sigma-Aldrich, St. Louis, MO, USA. Compounds were dissolved in either dimethyl sulfoxide (DMSO) or distilled water. Prior to stimulations, the cytotoxicity of all compounds was monitored, using propidium iodide (PI) (BD Biosciences, San Diego, CA) using protocol provided by the manufacturer. The relative viability of stimulated cells was calculated as [drawing 1]
For toxic compounds, the concentration yielding 90% relative viability (Rv90) was used. For non-toxic compounds, a concentration of 500 μM was used. For non-toxic compounds that were insoluble at 500 μM in medium, the highest soluble concentration was used. For compounds dissolved in DMSO, the final concentration of DMSO in each well was 0.1%.
The human myeloid leukemia-derived cell line MUTZ-3 (DSMZ, Braunschweig, Germany) was maintained in α-MEM (Thermo Scientific Hyclone, Logan, UT) supplemented with 20% (volume/volume) fetal calf serum (Invitrogen, Carlsbad, CA) and 40 ng/ml rhGM-CSF (Bayer HealthCare Pharmaceuticals, Seattle, WA), as described. Cultures were maintained at 200.000 cells/ml during expansion, with a media change every 3-4 days. No differentiating steps were performed. Instead, the proliferating progenitor MUTZ-3 was used for stimulations, as delivered by the supplier. Prior to each experiment, the cells were immunophenotyped using flow cytometry as a quality control. Cells were seeded in 6-well plates at 200.000 cells/ml. Stock solutions of each compound were prepared in either DMSO or distilled water, and were subsequently diluted so the in-well concentrations corresponded to the Rv90 value, and in-well concentrations of DMSO were 0.1%. Cells were incubated for 24 h at 37°C and 5% CO2. Thereafter, cells were harvested and analyzed by flow cytometry. In parallel, harvested cells were lysed in TRIzol reagent (Invitrogen) and stored at -20°C until RNA extraction. Stimulations with chemicals were performed in three individual experiments, so that triplicates samples were obtained.

[4] = physchem; details: aqueous buffer, kinetic from dmso stock
[5] = test system: MUTZ-3 cells; test: CD86 cell surface expression by flow cytometry after 24 h stimulation; format: cell-based, human; details: for CD86 surface expression: flow cytometry, Student's t test
Protocol: CD86 is the most extensively studied biomarker for sensitization to date, using e.g. monocyte derived dendritic cells (MoDCs) or human cell lines and their progenitors, such as THP-1, U-937 and KG-1. Thus, as a reference, cell surface expression of CD86 was measured with flow cytometry after 24 h stimulation, using 20 sensitizers and 20 non-sensitizers, as well as vehicle controls (Figure 2). […]. […] Consequently, CD86 cannot classify skin sensitizers, using a system based on MUTZ-3 cells.
No differentiating steps were performed. […] Thereafter, cells were harvested and analyzed by flow cytometry.
All cell surface staining and washing steps were performed in PBS containing 1% BSA (w/v). Cells were incubated with specific mouse mAbs for 15 min at 4°C. The following mAbs were used for flow cytometry: FITC-conjugated CD1a (DakoCytomation, Glostrup, Denmark), CD34, CD86, and HLA-DR (BD Biosciences), PE-conjugated CD14 (DakoCytomation), CD54 and CD80 (BD Biosciences). Mouse IgG1, conjugated to FITC or PE were used as isotype controls (BD Biosciences) and PI was used to assess cell viability. FACSDiva software was used for data acquisition with FACSCanto II instrument (BD Bioscience). 10,000 events were acquired and gates were set based on light scatter properties to exclude debris and nonviable cells. Further data analysis was performed using FCS Express V3 (De Novo Software, Los Angeles, CA).

[6] = Max solubility in medium; details: aqueous buffer, kinetic from dmso stock
[7] = 1010 transcripts, one-way ANOVA, one or more replicate, Figure 3B
[8] = 1137 genes, multi-group ANOVA, Figure 3D
[9] = sensitizing potency category according to LLNA, ref (14, 15, 45-48)
[10] = concentration yielding 90% relative viability, propidium iodide

Compound: C=CCc1ccc(O)c(OC)c1 [Eugenol]
- PCA grouping, sensitizing vs. non-sensitizing chemicals [1, 7]: grouped together with the control group
- Potency ([2]; mouse, in vivo): Weak [47]
- Rv90 ([3]; human, 24 h): 300 µM

Compound: C=O [Formaldehyde]
- PCA grouping, each individual stimulation [1]: group together, separate from the negative group
- Potency ([2]; mouse, in vivo): Strong [15]
- Rv90 [3]: 80 µM

Compound: CCCCCCCC(=O)O [Octanoic acid]
- PCA grouping, sensitizing vs. non-sensitizing chemicals [1, 7]: grouped closely with the sensitizers

Compound: Sc1nc2ccccc2s1 [2-Mercaptobenzothiazole]
- PCA grouping, each individual stimulation [1, 8]: group together, separate from the negative group
- Potency [2, 9]: Moderate [46]
- solubility [4]: 250 µM (≈ 41.8 µg/mL)
- CD86 surface expression [5]: significantly up-regulated

Compound: Nc1ccc(N)c([N+](=O)[O-])c1 [2-nitro-1,4-Phenylendiamine]
- PCA grouping, each individual stimulation [1, 8]: group together, separate from the negative group
- CD86 surface expression [5]: significantly up-regulated

Compound: Isoeugenol
- PCA grouping, sensitizing vs. non-sensitizing chemicals [1, 7]: grouped together with the control group

Compound: NCCN [Ethylendiamine]
- Potency predicted by Prediction Signature gene expression profile [1]: grouped together with weak sensitizers
- PCA grouping, sensitizing vs. non-sensitizing chemicals [1, 7]: grouped together with the control group
- Potency ([2]; mouse, in vivo): Moderate [14]

Compound: Oc1ccccc1 [Phenol]
- PCA grouping, sensitizing vs. non-sensitizing chemicals [1]: grouped closely with the sensitizers

Compound: O=[N+]([O-])c1ccc(Cl)c([N+](=O)[O-])c1 [2,4-Dinitrochlorobenzene]
- PCA grouping, each individual stimulation [1, 8]: group together, separate from the negative group
- Potency ([2]; mouse, in vivo): Extreme [15]
- CD86 surface expression [5]: significantly up-regulated
- Rv90 [3, 10]: 4 µM

Compound: Tween 80
- PCA grouping, sensitizing vs. non-sensitizing chemicals [1, 7]: grouped closely with the sensitizers

Compound: CC1(C)S[C@@H]2[C@H](NC(=O)Cc3ccccc3)C(=O)N2[C@H]1C(=O)O [Penicillin G]
- PCA grouping, sensitizing vs. non-sensitizing chemicals [1, 7]: grouped together with the control group

Compound: O=C/C=C/c1ccccc1 [Cinnamaldehyde]
- Potency [2, 9]: Moderate [47]
- CD86 surface expression [5]: significantly up-regulated
- Rv90 [3, 10]: 120 µM

Compound: C=CC(=O)OCCO [2-Hydroxyethyl acrylate]
- Potency predicted by Prediction Signature gene expression profile [1]: showed resemblance to strong and extreme sensitizers
- PCA grouping, each individual stimulation [1, 8]: group together, separate from the negative group
- CD86 surface expression [5]: significantly up-regulated
- Rv90 [3, 10]: 100 µM

Compound: Clc1ccccc1 [Chlorobenzene]
- solubility [6]: 98 µM (≈ 11 µg/mL)

Compound: O=Cc1ccccc1 [Benzaldehyde]
- solubility [4]: 250 µM (≈ 26.5 µg/mL)

Compound: Nc1ccc(N)cc1 [p-Phenylendiamine]
- PCA grouping, each individual stimulation [1, 8]: group together, separate from the negative group
- Potency [2, 9]: Strong [47]
- CD86 surface expression [5]: significantly up-regulated
- Rv90 [3]: 75 µM

Compound: O=C(O)c1ccc(O)cc1 [p-Hydroxybenzoic acid]
- solubility [4]: 250 µM (≈ 34.5 µg/mL)

Compound: O=CC=O [Glyoxal]
- Potency predicted by Prediction Signature gene expression profile [1]: grouped together with weak sensitizers
- PCA grouping, sensitizing vs. non-sensitizing chemicals [1, 7]: grouped together with the control group
- Potency ([2]; mouse, in vivo): Moderate [46]
- Rv90 [3]: 300 µM

Compound: [K+].[K+].[O]=[Cr](=[O])([O-])[O][Cr](=[O])(=[O])[O-] [Potassium dichromate]
- PCA grouping, each individual stimulation [1]: discrete profile
- Potency ([2]; mouse, in vivo): Extreme [14]
- CD86 surface expression [5]: significantly up-regulated

Compound: Oc1cccc(O)c1 [Resorcinol]
- PCA grouping, sensitizing vs. non-sensitizing chemicals [1, 7]: grouped together with the control group
- PCA grouping, each individual stimulation [1, 8]: group together, separate from the negative group
- Potency [2, 9]: Moderate [48]
- CD86 surface expression [5]: significantly up-regulated

Compound: CCCCCCC(C=O)=Cc1ccccc1 [Hexylcinnamic aldehyde]
- Potency predicted by Prediction Signature gene expression profile [1]: grouped together with weak sensitizers
- PCA grouping, sensitizing vs. non-sensitizing chemicals [1, 7]: grouped together with the control group
- Potency [2, 9]: Moderate [15]
- solubility [4]: 32.3 µM (≈ 7 µg/mL)

Compound: OC/C=C/c1ccccc1 [Cinnamic alcohol]
- PCA grouping, each individual stimulation [1, 8]: group together, separate from the negative group
- Potency [2, 9]: Weak [46]
- solubility [4]: 500 µM (≈ 67.1 µg/mL)

Compound: CCO/C=C1\N=C(c2ccccc2)OC1=O [Oxazolone]
- Potency ([2]; mouse, in vivo): Extreme [15]

Compound: CCCCCCCCCCCCOS(=O)(=O)[O-].[Na+] [Sodium dodecyl sulphate]
- Rv90 [3]: 200 µM

Compound: Nc1ccccc1O [2-Aminophenol]
- PCA grouping, each individual stimulation [1]: group together, separate from the negative group
- Potency ([2]; mouse, in vivo): Strong [46]
- CD86 surface expression [5]: significantly up-regulated
- frequency of CD86-positive cells ([5]; one representative experiment out of three, Figure 2A): 60.4%
- Rv90 [3, 10]: 100 µM
